Assay results published in US20140275007A1, “OXAMAZIN ANTIBIOTICS” (priority 2013, published 2014).
In brackets after ≈: the same amount, converted by molar mass.

Columns and labels:
Type in all cases: cell-based, Escherichia coli
[1] = tested on: E. coli strain ECM6713 (pUCP24::TEM-10); assay: MIC, broth microdilution, isogenic E. coli panel, TEM-10 strain; details: for Ratio of MIC vs vector alone: strain ECM6713, pUCP24::TEM-10 vs ECM6704
Protocol: (§1) Potency and spectrum of compound 1 was determined using the panel of isogenic engineered strains, each containing a plasmid carrying a cloned gene expressing a β-lactamase enzyme. The strain that contained the empty vector was included to evaluate the impact of individual β-lactamases on microbiological activity of compound 1 vs comparator antibiotics. The host strain was wild-type strain of Escherichia coli, ECM5497. The vector plasmid was pUCP24. […] MIC was assessed using broth microdilution method as recommended by the NCCLS (National Committee for Clinical Laboratory Standards. Methods for Dilution Antimicrobial Susceptibility Tests for Bacteria that Grow Aerobically—4th Edition. Approved Standard NCCLS Document M7-A4, Vol. 17, No. 2, NCCLS, Wayne, Pa., January 1997). In this assay multiple dilutions of drugs are being tested for the ability to inhibit growth of the test bacterial strains. The MIC assay is performed in microtiter plates. Antibiotics are diluted two-fold in the x axis, each column containing a single concentration of antibiotic. The assay is performed in MHB with a final bacterial inoculum of 5×10^5 CFU/mL (from an early-log phase culture). Microtiter plates are incubated during 20 h at 35° C. and are read using a microtiterplate reader (Molecular Devices) at 650 nm as well as visual observation using a microtiter plate reading mirror.

[2] = tested on: E. coli strain ECM6716 (pUCP24::OXA-48); assay: MIC, broth microdilution, isogenic E. coli panel, OXA-48 strain; details: for Ratio of MIC vs vector alone: strain ECM6716, pUCP24::OXA-48 vs ECM6704
Protocol: as §1

[3] = tested on: E. coli strain ECM6711 (pUCP24::VIM-1); assay: MIC, broth microdilution, isogenic E. coli panel, VIM-1 strain; details: for Ratio of MIC vs vector alone: strain ECM6711, pUCP24::VIM-1 vs ECM6704
Protocol: as §1

[4] = tested on: E. coli strain ECM6706 (pUCP24::SME-2); assay: MIC, broth microdilution, isogenic E. coli panel, SME-2 strain; details: for Ratio of MIC vs vector alone: strain ECM6706, pUCP24::SME-2 vs ECM6704
Protocol: as §1

[5] = tested on: E. coli strain ECM6703 (pUCP24::NDM-1); assay: MIC, broth microdilution, isogenic E. coli panel, NDM-1 strain; details: for Ratio of MIC vs vector alone: strain ECM6703, pUCP24::NDM-1 vs ECM6704
Protocol: as §1

[6] = tested on: E. coli strain ECM6704 (pUCP24, vector); assay: MIC, broth microdilution, isogenic E. coli panel, empty vector strain; details: for Ratio of MIC vs vector alone: strain ECM6704, pUCP24, vector (reference strain itself)
Protocol: as §1

[7] = tested on: E. coli strain ECM6715 (pUCP24::AmpC); assay: MIC, broth microdilution, isogenic E. coli panel, AmpC strain; details: for Ratio of MIC vs vector alone: strain ECM6715, pUCP24::AmpC vs ECM6704
Protocol: as §1

[8] = tested on: E. coli strain ECM6694 (pUCP24::CTX-M-15); assay: MIC, broth microdilution, isogenic E. coli panel, CTX-M-15 strain; details: for Ratio of MIC vs vector alone: strain ECM6694, pUCP24::CTX-M-15 vs ECM6704
Protocol: as §1

[9] = tested on: E. coli strain ECM6696 (pUCP24::NMC-A); assay: MIC, broth microdilution, isogenic E. coli panel, NMC-A strain; details: for Ratio of MIC vs vector alone: strain ECM6696, pUCP24::NMC-A vs ECM6704
Protocol: as §1

[10] = tested on: E. coli strain ECM6701 (pUCP24::KPC-2); assay: microbe, parasite or virus in culture; details: for Ratio of MIC vs vector alone: strain ECM6701, pUCP24::KPC-2 vs ECM6704
Protocol: as §1

[11] = tested on: E. coli strain ECM6718 (pUCP24::SHV-5); assay: microbe, parasite or virus in culture; details: for Ratio of MIC vs vector alone: strain ECM6718, pUCP24::SHV-5 vs ECM6704
Protocol: as §1

[12] = tested on: E. coli strains expressing individual β-lactamases; assay: Impact of β-lactamases on microbiological activity, whole panel of isogenic engineered strains
Protocol: as §1
Table 2 contains MICs of compound 1 and comparator antibiotics for each test strain and Table 3 contains MIC ratios vs vector only control (strain ECM6704). β-Lactamases present in the test panel belonged to all four currently described classes of enzymes, A, B, C and D. These β-lactamases also represent the major groups of the most relevant enzymes.

[13] = strain ECM6713, pUCP24::TEM-10, class A, ESBL
[14] = strain ECM6711, pUCP24::VIM-1, class B
[15] = strain ECM6706, pUCP24::SME-2, class A, carbapenemase
[16] = strain ECM6703, pUCP24::NDM-1, class B
[17] = strain ECM6701, pUCP24::KPC-2, class A, carbapenemase
[18] = strain ECM6718, pUCP24::SHV-5, class A, ESBL
[19] = strain ECM6715, pUCP24::AmpC, class C
[20] = strain ECM6694, pUCP24::CTX-M-15, class A, ESBL
[21] = strain ECM6696, pUCP24::NMC-A, class A, carbapenemase

Row | Structure (SMILES) | MIC ([1]; Escherichia coli) [µg/mL] | MIC ([2]; Escherichia coli) [µg/mL] | MIC ([3]; Escherichia coli) [µg/mL] | MIC ([4]; Escherichia coli) [µg/mL] | MIC ([5]; Escherichia coli) [µg/mL] | MIC ([6]; Escherichia coli, 20 h) [µg/mL] | MIC ([7]; Escherichia coli) [µg/mL] | MIC ([8]; Escherichia coli) [µg/mL] | MIC ([9]; Escherichia coli) [µg/mL] | MIC [1, 13] [µg/mL] | MIC [3, 14] [µg/mL] | MIC [4, 15] [µg/mL] | MIC [5, 16] [µg/mL] | MIC [10, 17] [µg/mL] | MIC [11, 18] [µg/mL] | MIC [7, 19] [µg/mL] | MIC [8, 20] [µg/mL] | MIC [9, 21] [µg/mL] | Ratio of MIC vs vector alone [1] | Ratio of MIC vs vector alone [9] [µg/mL] | other results
1 | C[C@H]1[C@H](NC(=O)/C(=N\OC(C)(C)C(=O)O)c2csc(N)n2)C(=O)N1S(=O)(=O)O [AZTREONAM, aztreonam] | > 64 | 0.125 (≈ 0.287 µM) | ≤ 0.06 | > 64 | ≤ 0.06 | 0.125 (≈ 0.287 µM) | 8 (≈ 18.4 µM) | 32 (≈ 73.5 µM) | 64 (≈ 147 µM) |  |  |  |  |  |  |  |  |  |  |  | 
2 | CC(C)(O/N=C(\C(=O)N[C@@H]1C(=O)N2C(C(=O)[O-])=C(C[n+]3ccccc3)CS[C@H]12)c1csc(N)n1)C(=O)O [CEFTAZIDIME, ceftazidime] |  |  |  |  |  |  |  |  |  | 65 (≈ 119 µM) | >64 | 1 (≈ 1.83 µM) | >64 | 4 (≈ 7.32 µM) | 8 (≈ 14.6 µM) | 16 (≈ 29.3 µM) | 16 (≈ 29.3 µM) | 0.5 (≈ 0.915 µM) |  |  | 
3 | CC1(C)[C@H](NC(=O)/C(=N\OCC(=O)O)c2csc(N)n2)C(=O)N1OS(=O)(=O)O [TIGEMONAM, tigemonam] |  |  |  |  |  |  |  |  |  | >64 | 0.25 (≈ 0.572 µM) | 0.5 (≈ 1.14 µM) | 0.25 (≈ 0.572 µM) | 0.5 (≈ 1.14 µM) | 32 (≈ 73.2 µM) | 4 (≈ 9.14 µM) | 2 (≈ 4.57 µM) | 0.5 (≈ 1.14 µM) | 256 | 2 | MIC ([2]; strain ECM6716, pUCP24::OXA-48, class D): 0.25 µg/mL (≈ 0.572 µM); Ratio of MIC vs vector alone [2]: 2; Ratio of MIC vs vector alone [3]: 1; Ratio of MIC vs vector alone [4]: 2; Ratio of MIC vs vector alone [5]: 2; Ratio of MIC vs vector alone [10]: 2; Ratio of MIC vs vector alone [11]: 128; Ratio of MIC vs vector alone [6]: 1; MIC ([6]; strain ECM6704, plasmid pUCP24, vector, MHB, 20 h at 35° C.): 0.25 µg/mL (≈ 0.572 µM); Ratio of MIC vs vector alone [7]: 16; Ratio of MIC vs vector alone [8]: 8
4 | NC(=O)OC[C@@H]1[C@H](NC(=O)/C(=N\OCC(=O)O)c2csc(N)n2)C(=O)N1S(=O)(=O)O [CARUMONAM, carumonam] | 4 (≈ 8.58 µM) | ≤ 0.06 | ≤ 0.06 | 0.125 (≈ 0.268 µM) | ≤ 0.06 | ≤ 0.06 | 4 (≈ 8.58 µM) | 0.125 (≈ 0.268 µM) | 0.25 (≈ 0.536 µM) |  |  |  |  |  |  |  |  |  |  | 4 | MIC ([10]; Escherichia coli): 0.25 µg/mL (≈ 0.536 µM); MIC ([11]; Escherichia coli): 2 µg/mL (≈ 4.29 µM)
5 | CC1(C)[C@H](NC(=O)/C(=N\OCC(=O)O)c2csc(N)n2)C(=O)N1OCC(=O)O [Compound 1, (S,Z)-2-(1-(2-aminothiazol-4-yl)-2-(1-(carboxymethoxy)-2,2-dimethyl-4-oxoazetidin-3-ylamino)-2-oxoethylideneaminooxy)acetic acid] | 16 (≈ 38.5 µM) | 2 (≈ 4.81 µM) | 1 (≈ 2.41 µM) | 1 (≈ 2.41 µM) | 1 (≈ 2.41 µM) | 2 (≈ 4.81 µM) | 2 (≈ 4.81 µM) | 1 (≈ 2.41 µM) | 1 (≈ 2.41 µM) |  |  |  |  |  |  |  |  |  | 8 | 0.5 | Effect of TEM-10 on activity ([1]; only enzyme in the panel with an effect, much less than on other monobactams or ceftazidime): some effect; Ratio of MIC vs vector alone [2]: 1; Ratio of MIC vs vector alone [3]: 0.5; Ratio of MIC vs vector alone [4]: 0.5; Ratio of MIC vs vector alone [5]: 0.5; MIC ([10]; Escherichia coli): 1 µg/mL (≈ 2.41 µM); Ratio of MIC vs vector alone [10]: 0.5; MIC ([11]; Escherichia coli): 4 µg/mL (≈ 9.63 µM); Ratio of MIC vs vector alone [11]: 2; Ratio of MIC vs vector alone [6]: 1; Effect of class B or class D enzymes on potency ([12]; class B or class D β-lactamases): not affected; Effect of the majority of class A and class C enzymes on potency ([12]; majority of class A and class C β-lactamases): not affected; Effect of β-lactamases on potency, compared with the other β-lactams tested ([12]; whole panel, vs aztreonam, tigemonam, carumonam, ceftazidime): least affected; Ratio of MIC vs vector alone [7]: 1; Ratio of MIC vs vector alone [8]: 0.5
